Measured values: patent US9353100B2, “Macrocyclic serine protease inhibitors, pharmaceutical compositions thereof, and their use for treating HCV infections” (Idenix Pharmaceuticals LLC, priority 2011, dated 2016)
Read-outs that look alike come from different tables or passages of the source.

Tests used:
HCV NS3-NS4A protease 1a = target: T1, HCV NS3-NS4A protease 1a (Hepatitis C virus genotype 1a, UniProt P27958); experiment: HCV protease assay (FRET peptide), genotype 1a; assay type: biochemical; conditions: genotype 1a protease; 60 min at 30° C.; read-out: IC50 Against HS3/4A 1a
T1 construct: HCV NS3-NS4A protease, which was produced according to the method of Taremi et al; made in house
T1 sequence (P27958 1027-1208): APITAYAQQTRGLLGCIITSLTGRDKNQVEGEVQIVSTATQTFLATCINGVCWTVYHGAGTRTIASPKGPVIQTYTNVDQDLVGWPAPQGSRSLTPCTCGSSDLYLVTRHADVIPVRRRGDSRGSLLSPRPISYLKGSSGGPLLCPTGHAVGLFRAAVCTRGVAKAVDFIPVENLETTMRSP
T1 sequence (P27958 1658-1711): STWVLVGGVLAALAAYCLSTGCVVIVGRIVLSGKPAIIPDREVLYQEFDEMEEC
Description: (§1) General procedure: Measurement of the inhibitory effect of compounds on HCV protease activity was performed using the HiLyte Fluor™ TR/QXL™ 610 FRET peptide from AnaSpec, Inc. (San Jose, Calif.) under conditions developed in-house using 2-3 nM HCV NS3-NS4A protease, which was produced according to the method of Taremi et al. (Protein Science, 1998, 7, 2143-2149). The compounds were tested at a variety of concentrations in assay buffer containing a final DMSO concentration of 5%. Reactions were allowed to proceed for 60 min at 30° C. and fluorescence measurements were recorded with a PerkinElmer Victor^3 V 1420 Multilabel Counter. The IC50 values were determined from the percent inhibition versus concentration data using a sigmoidal non-linear regression analysis based on four parameters with XLfit 4.1 software.

HCV NS3-NS4A protease 1b = target: T2, HCV NS3-NS4A protease 1b (Hepatitis C virus genotype 1b, UniProt Q9WMX2); experiment: HCV protease assay (FRET peptide), genotype 1b; assay type: biochemical
T2 construct: HCV NS3-NS4A protease, which was produced according to the method of Taremi et al; made in house
T2 sequence (Q9WMX2 1658-1711): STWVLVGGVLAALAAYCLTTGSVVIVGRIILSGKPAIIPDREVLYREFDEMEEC
T2 sequence (Q9WMX2 1027-1208): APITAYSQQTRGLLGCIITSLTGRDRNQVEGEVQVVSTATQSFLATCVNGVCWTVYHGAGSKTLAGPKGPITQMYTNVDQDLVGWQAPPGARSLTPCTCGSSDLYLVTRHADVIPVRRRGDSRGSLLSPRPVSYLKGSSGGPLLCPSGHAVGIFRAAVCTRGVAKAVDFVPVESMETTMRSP
Description: as §1

HCV NS3-NS4A protease 2a = target: T3, HCV NS3-NS4A protease 2a (Hepatitis C virus genotype 2a, UniProt Q99IB8); experiment: HCV protease assay (FRET peptide), genotype 2a; assay type: biochemical; conditions: genotype 2a protease; 60 min at 30° C.; read-out: IC50 Against HS3/4A 2a
T3 construct: HCV NS3-NS4A protease, which was produced according to the method of Taremi et al; made in house
T3 sequence (Q99IB8 1662-1715): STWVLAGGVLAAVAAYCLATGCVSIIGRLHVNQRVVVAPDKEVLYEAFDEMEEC
T3 sequence (Q99IB8 1031-1212): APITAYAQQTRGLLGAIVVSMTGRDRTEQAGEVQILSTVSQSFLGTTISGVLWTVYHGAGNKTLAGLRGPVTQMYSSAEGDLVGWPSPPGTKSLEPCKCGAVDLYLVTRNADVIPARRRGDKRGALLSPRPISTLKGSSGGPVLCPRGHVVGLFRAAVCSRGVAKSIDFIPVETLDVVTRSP
Description: as §1

HCV NS3-NS4A protease 3a = target: T4, HCV NS3-NS4A protease 3a (Hepatitis C virus genotype 3a, UniProt Q81258); experiment: HCV protease assay (FRET peptide), genotype 3a; assay type: biochemical
T4 construct: HCV NS3-NS4A protease, which was produced according to the method of Taremi et al; made in house
T4 sequence (Q81258 1664-1717): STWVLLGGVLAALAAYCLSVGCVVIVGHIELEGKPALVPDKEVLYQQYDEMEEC
T4 sequence (Q81258 1033-1214): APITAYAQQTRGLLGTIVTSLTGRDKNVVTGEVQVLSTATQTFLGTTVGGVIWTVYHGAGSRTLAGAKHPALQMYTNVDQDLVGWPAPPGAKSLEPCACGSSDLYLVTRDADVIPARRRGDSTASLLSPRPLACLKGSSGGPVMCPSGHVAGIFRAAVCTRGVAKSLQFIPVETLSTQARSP
Description: as §1

HCV NS3-NS4A protease 4a = target: T5, HCV NS3-NS4A protease 4a (Hepatitis C virus genotype 4a, UniProt O39929); experiment: HCV protease assay (FRET peptide), genotype 4a; assay type: biochemical; conditions: genotype 4a protease; 60 min at 30° C.; read-out: IC50 Against HS3/4A 4a
T5 construct: HCV NS3-NS4A protease, which was produced according to the method of Taremi et al; made in house
T5 sequence (O39929 1658-1711): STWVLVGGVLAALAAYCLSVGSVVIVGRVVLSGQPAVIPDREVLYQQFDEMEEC
T5 sequence (O39929 1027-1208): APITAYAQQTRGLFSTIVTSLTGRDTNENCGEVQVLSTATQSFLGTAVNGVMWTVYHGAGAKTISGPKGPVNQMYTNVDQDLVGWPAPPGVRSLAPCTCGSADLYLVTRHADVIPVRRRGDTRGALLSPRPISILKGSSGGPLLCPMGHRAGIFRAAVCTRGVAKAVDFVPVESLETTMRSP
Description: as §1

HCV NS3-NS4A protease 5a = target: T6, HCV NS3-NS4A protease 5a (Hepatitis C virus genotype 5a, UniProt O39928); experiment: HCV protease assay (FRET peptide), genotype 5a; assay type: biochemical; conditions: genotype 5a protease; 60 min at 30° C.; read-out: IC50 Against HS3/4A 5a
T6 construct: HCV NS3-NS4A protease, which was produced according to the method of Taremi et al; made in house
T6 sequence (O39928 1659-1712): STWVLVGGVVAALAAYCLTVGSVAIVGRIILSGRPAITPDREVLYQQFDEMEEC
T6 sequence (O39928 1028-1209): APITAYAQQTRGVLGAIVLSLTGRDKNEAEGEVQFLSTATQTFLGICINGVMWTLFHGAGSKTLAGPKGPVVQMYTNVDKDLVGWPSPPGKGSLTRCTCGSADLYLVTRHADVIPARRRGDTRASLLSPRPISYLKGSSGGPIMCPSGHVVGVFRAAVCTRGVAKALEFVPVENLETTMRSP
Description: as §1

HCV NS3-NS4A protease 6a = target: T7, HCV NS3-NS4A protease 6a (Hepatitis C virus genotype 6a, UniProt O39927); experiment: HCV protease assay (FRET peptide), genotype 6a; assay type: biochemical; conditions: genotype 6a protease; 60 min at 30° C.; read-out: IC50 Against HS3/4A 6a
T7 construct: HCV NS3-NS4A protease, which was produced according to the method of Taremi et al; made in house
T7 sequence (O39927 1031-1212): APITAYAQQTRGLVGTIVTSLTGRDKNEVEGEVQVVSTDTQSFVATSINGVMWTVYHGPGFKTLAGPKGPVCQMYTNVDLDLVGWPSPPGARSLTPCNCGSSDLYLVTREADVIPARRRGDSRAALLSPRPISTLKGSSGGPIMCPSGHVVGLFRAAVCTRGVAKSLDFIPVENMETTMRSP
T7 sequence (O39927 1662-1715): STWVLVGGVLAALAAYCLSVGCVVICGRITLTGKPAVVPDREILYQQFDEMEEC
Description: as §1

[1] = test system: HCV genotype 1a H77 strain subgenomic luciferase replicon (H1a-luc) in Huh-7 cells; experiment: HCV luciferase replicon assay, genotype 1a (H1a-luc); assay type: cell-based; conditions: for FS (1a/1b): EC50 against genotype 1a HCV divided by EC50 against genotype 1b, replicon luciferase assay; for EC50: Hepatitis C virus, read-out: EC50 Against Relpicon 1a
Description: (§2) General procedure: The HCV luciferase replicon assay measures the ability of a test compound to inhibit HCV replication in cell culture after 3 days of treatment in a human hepatoma cell line (Huh-7) bearing a HCV replicon containing a luciferase-neomycin phosphotransferase fusion gene. The inhibition of HCV replication was measured by quantification of luciferase protein expression. Briefly, Huh-7 cells containing either the HCV genotype 1a H77 strain or genotype 1b Con1 strain subgenomic luciferase replicon (H1a-luc or Zluc, respectively) were grown in DMEM containing glucose, L-glutamine and sodium pyruvate, 10% fetal bovine serum (FBS), 100 IU/mL penicillin, 100 μg/mL streptomycin, 2 mM GlutaMAX, non-essential amino acids and 0.25 (H1a-luc) or 0.5 (Zluc) mg/mL G418. GlutaMAX was obtained from Invitrogen, Corp.; all other media reagents were obtained from Mediatech, Inc. For dose-response testing, the cells were seeded in 96-well plates at 1×10^4 (H1a-luc) or 7.5×10^3 (Zluc) cells/well in a volume of 50 μL and incubated at 37° C./5% CO2. Three hours after plating, 50 μL of ten 5-fold serial dilutions of compound were added, and cell cultures were incubated at 37° C./5% CO2 for 72 hours. In all cases, Huh-7 cells lacking the HCV replicon served as negative control. To assess luciferase expression, the media/compound was removed from the plates and ONE-glo Luciferase assay reagent (Promega) was added to each well. The assay plates were shaken for 3 minutes at room temperature and luciferase activity for each well was measured with a 1 sec read time on the Victor^3V multilabel counter using a 700 nm cut-off filter (Perkin Elmer). EC50 values were calculated from dose response curves from the resulting best-fit equations determined by Microsoft Excel and XLfit 4.1 software.

[2] = test system: HCV genotype 1b Con1 strain subgenomic luciferase replicon (Zluc) in Huh-7 cells; experiment: HCV luciferase replicon assay, genotype 1b (Zluc); assay type: cell-based; conditions: Hepatitis C virus, read-out: EC50 Against Relpicon 1b
Description: as §2

[3] = Cytotoxicity evaluation, Cell Titer 96 AQueous One Solution; assay type: cell-based, human; conditions: human; Zluc cells, cellular viability
Description: For cytotoxicity evaluation, Zluc cells were treated with compounds as described above and cellular viability was monitored using the Cell Titer 96 AQueous One Solution Cell Proliferation Assay (Promega). Plates were then read at 490 nm in a Victor^3V 1420 multilabel counter (Perkin Elmer) and CC50 concentrations were determined using Microsoft Excel and XLfit 4.1 software.

[4] = test system: genotype 1b HCV replicon in Zluc cells; experiment: Genotype 1b HCV replicon luciferase assay with 10% FCS or 45% human serum; assay type: cell-based; conditions: EC50 in presence of 45% HS divided by EC50 in presence of 10% FCS
Description: as §2
In Table 1, the values of FS with 45% HS were determined using the genotype 1b HCV replicon luciferase screening assay using Zluc cells, except that activity in the presence of 10% fetal calf serum (FCS) or 45% human serum (HS) was determined in parallel. The fold shift (FS) with 45% HS is the EC50 value in the presence of 45% HS divided by the EC50 value in the presence of 10% FCS. FS (1a/1b) is the EC50 value against genotype 1a HCV divided by the EC50 value against the genotype 1b in the replicon luciferase screening assay.

[5] = genotype 1a H77 replicon, Huh-7 (H1a-luc), 72 hours
[6] = genotype 1b Con1 replicon, Huh-7 (Zluc), 72 hours

SMILES | IC50 (HCV NS3-NS4A protease 1a) [nM] | IC50 (HCV NS3-NS4A protease 1b) [nM] | IC50 (HCV NS3-NS4A protease 2a) [nM] | IC50 (HCV NS3-NS4A protease 3a) [nM] | IC50 (HCV NS3-NS4A protease 4a) [nM] | IC50 (HCV NS3-NS4A protease 5a) [nM] | IC50 (HCV NS3-NS4A protease 6a) [nM] | FS (1a/1b) [1] | EC50 [1, 5] [nM] | EC50 [2, 6] [nM] | CC50 [3] [nM] | FS with 45% HS [4] | IC50 (HCV NS3-NS4A protease 1b; read-out: IC50 Against HS3/4A 1b, genotype 1b protease, 60 min at 30° C.) [nM] | EC50 ([1]; Huh-7, 72 h) [nM] | EC50 ([2]; Huh-7, 72 h) [nM]
C#Cc1csc(-c2cc(O[C@H]3CC[C@H]4C(=O)N(C)CCCC/C=C\[C@@H]5C[C@@]5(C(=O)NS(=O)(=O)C5(C)CC5)NC(=O)[C@@H]4C3)c3ccc(OC)c(C)c3n2)n1 [Compound 17a, (1R,4R,6R,15R,18S)-1-methyl-cyclopropanesulfonic acid {18-[2-(4-ethynyl-thiazol-2-yl)-7-methoxy-8-methyl-quinolin-4-yloxy]-13-methyl-2,14-dioxo-3,13-diaza-tricyclo[13.4.0.0]nonadec-7-ene-4-carbonyl}-amide, reference compound] | < 10 | < 10 | < 10 | 10 to 100 | < 10 | < 10 | < 10 | 8 | < 10 | < 10 | > 10000 | 29 | – | – | –
Cc1csc(-c2cc(O[C@H]3CC[C@H]4C(=O)N(C)CCCC/C=C\[C@@H]5C[C@@]5(C(=O)NS(=O)(=O)C5(C)CC5)NC(=O)[C@@H]4C3)nc(-c3nc(C(F)(F)F)cs3)n2)n1 [Compound C101, (1R,4R,6R,15R,18S)-1-methyl-cyclopropanesulfonic acid {13-methyl-18-[6-(4-methyl-thiazol-2-yl)-2-(4-trifluoromethyl-thiazol-2-yl)-pyrimidin-4-yloxy]-2,14-dioxo-3,13-diaza-tricyclo[13.4.0.0]nonadec-7-ene-4-carbonyl}-amide] | < 10 | < 10 | < 10 | < 10 | < 10 | < 10 | < 10 | 7 | < 10 | < 10 | > 10000 | 16 | – | – | –
COc1ccc2c(O[C@H]3CC[C@H]4C(=O)N(C)CCCC/C=C\[C@@H]5C[C@@]5(C(=O)NS(=O)(=O)C5(C)CC5)NC(=O)[C@@H]4C3)cc(-c3nc(C(C)C)cs3)nc2c1C [Compound A101, (1R,4R,6R,15R,18S)-1-methyl-cyclopropanesulfonic acid {18-[2-(4-isopropyl-thiazol-2-yl)-7-methoxy-8-methyl-quinolin-4-yloxy]-13-methyl-2,14-dioxo-3,13-diaza-tricyclo[13.4.0.0]nonadec-7-ene-4-carbonyl}-amide] | < 10 | < 10 | 10 to 100 | 100 to 1000 | < 10 | 10 to 100 | < 10 | 6 | 10 to 100 | < 10 | > 10000 | >40 | – | – | –
CN1CCCC/C=C\[C@@H]2C[C@@]2(C(=O)NS(=O)(=O)C2(C)CC2)NC(=O)[C@@H]2C[C@@H](Oc3nc(-c4cccc(C(F)(F)F)c4)sc3-c3ccccc3)CC[C@H]2C1=O [Compound D101, (1R,4R,6R,15R,18S)-1-methyl-cyclopropanesulfonic acid {13-methyl-2,14-dioxo-18-[5-phenyl-2-(3-trifluoromethyl-phenyl)-thiazol-4-yloxy]-3,13-diaza-tricyclo[13.4.0.0]nonadec-7-ene-4-carbonyl}-amide] | – | 10 to 100 | – | 10 to 100 | – | – | – | 147 | 1000 to 10000 | 10 to 100 | > 10000 | – | – | – | –
Cc1csc(-c2cc(O[C@H]3CC[C@H]4C(=O)N(C)CCCC/C=C\[C@@H]5C[C@@]5(C(=O)NS(=O)(=O)C5(C)CC5)NC(=O)[C@@H]4C3)cc(-c3nc(C(F)(F)F)cs3)n2)n1 [Compound C102, (1R,4R,6R,15R,18S)-1-methyl-cyclopropanesulfonic acid {13-methyl-18-[2-(4-methyl-thiazol-2-yl)-6-(4-trifluoromethyl-thiazol-2-yl)-pyridin-4-yloxy]-2,14-dioxo-3,13-diaza-tricyclo[13.4.0.0]nonadec-7-ene-4-carbonyl}-amide] | – | < 10 | – | < 10 | – | – | – | 5 | < 10 | < 10 | > 10000 | – | – | – | –
CC(C)c1csc(-c2cc(O[C@H]3CC[C@H]4C(=O)N(C)CCCC/C=C\[C@@H]5C[C@@]5(C(=O)NS(=O)(=O)C5(C)CC5)NC(=O)[C@@H]4C3)nc(-c3nc(C(F)(F)F)cs3)n2)n1 [Compound C103, (1R,4R,6R,15R,18S)-1-methyl-cyclopropanesulfonic acid {18-[6-(4-isopropyl-thiazol-2-yl)-2-(4-trifluoromethyl-thiazol-2-yl)-pyrimidin-4-yloxy]-13-methyl-2,14-dioxo-3,13-diaza-tricyclo[13.4.0.0]nonadec-7-ene-4-carbonyl}-amide] | – | < 10 | – | < 10 | – | – | – | 6 | < 10 | < 10 | > 10000 | – | – | – | –
CN1CCCC/C=C\[C@@H]2C[C@@]2(C(=O)NS(=O)(=O)C2(C)CC2)NC(=O)[C@@H]2C[C@@H](Oc3nc(-c4ccc(Cl)cc4)sc3-c3ccccc3)CC[C@H]2C1=O [Compound D104] | – | – | – | – | – | – | – | 188 | – | – | > 10000 | – | 10 to 100 | > 10000 | 10 to 100
CN1CCCC/C=C\[C@@H]2C[C@@]2(C(=O)NS(=O)(=O)C2(C)CC2)NC(=O)[C@@H]2C[C@@H](Oc3cc(-c4nc(C(F)(F)F)cs4)nc(-c4nc(C(F)(F)F)cs4)n3)CC[C@H]2C1=O [Compound C104, (1R,4R,6R,15R,18S)-1-methyl-cyclopropanesulfonic acid {18-[2,6-bis(4-trifluoromethyl-thiazol-2-yl)-pyrimidin-4-yloxy]-13-methyl-2,14-dioxo-3,13-diaza-tricyclo[13.4.0.0]nonadec-7-ene-4-carbonyl}-amide] | – | < 10 | – | 10 to 100 | – | – | – | 5 | < 10 | < 10 | > 10000 | – | – | – | –
